{
  "source": "PubChem BioAssay AID2060502",
  "about": "(Molecular Pharmacology Branch, DTP, NCI, 2025)",
  "tested_on": "885724-159-R-J1-PDC complex spheroid viability",
  "test": "Anticancer human tumor 885724-159-R-J1-PDC patient-derived pancreatic adenocarcinoma cell line growth inhibition [GQUAD]",
  "settings": "for viability, T/C: stronger effect = lower value",
  "text": "DNA G-quadruplex Stabilizer Agents in Combinations in Complex Spheroids\nA high-throughput screen of multi-cell type tumor spheroids was designed to identify active combinations of DNA G-quadruplex stabilizer agents and targeted small molecules. Complex spheroids include a stromal component modeled by human endothelial cells (HUVEC) and fibroblasts modeled by human mesenchymal stem cells (MSCs). The concentration ranges selected for each drug and investigational agent were based upon clinically achievable concentrations if the clinical Cmax of the agent was known.\nCompounds. The drugs and investigational agents: pidnarulex (CX-5461; NSC782164), APTO-253 (NSC789042), BRACO-19 (NSC847499), peposertib (NSC802822), ceralasertib (NSC780249), elimusertib (NSC800525), camonsertib (NSC841442), AZD-1390 (NSC803789), olaparib (NSC753686), talazoparib (NSC767125), ART-558 (NSC835418), sotorasib (NSC818433), MRTX-1133 (NSC836407), SN-38 (NSC673596), topotecan (NSC609699), etoposide (NSC141540), doxorubicin (NSC123127), gemcitabine (NSC613327), 5-fluorouracil (NSC19893), paclitaxel (NSC125973), vemurafenib (NSC761431), panobinostat (NSC761190), R-306465 (JNJ-16241199; NSC773264), adavosertib (NSC754352), TP-3654 (NSC805149), carboplatin (NSC241240), KSQ-4279 (NSC840948), and staurosporine (NSC755774) were obtained from the National Cancer Institute (NCI) Developmental Therapeutics Program Chemical Repository (34). The FDA-approved anticancer drug set is available from the NCI Developmental Therapeutics Program. […] The stock solutions were prepared in dimethyl sulfoxide (DMSO, Sigma-Aldrich, St. Louis, MO, cat. D2650) at 800-fold the tested concentration and stored at -70 degrees C prior to their use. All drugs and investigational agents were tested over a range starting from a high concentration at or near the clinical Cmax and decreasing in half-log increments. If the clinical Cmax for an agent had not been determined, the highest concentration tested was 10 microM.\n2.3 Cell Culture. All cells were maintained in an incubator at 37 degrees C and 5% CO2 with 95% humidity. The PDC lines were cultured according to standard operating procedures established by the NCI PDMR. All PDCs were thawed and cultured in Matrigel-coated flasks prepared with a working solution of 1X Ham's F-12 nutrient mix, without supplementation (Invitrogen, cat. 11765054), 100 U/mL penicillin-streptomycin (Invitrogen, cat. 15140122), and 2.5% Matrigel (Corning Inc., cat. 354248) for the first three passages. The 857933-349-R-J2-PDC line was cultured in 6C/Colon 1B media, which includes advanced DMEM/F-12 (Thermo Fisher Scientific, cat. 12634028), 10 mM HEPES (Thermo Fisher Scientific, cat. 15630080), 1X GlutaMAX supplement (Thermo Fisher Scientific, cat. 35050061), 0.1 mg/mL primocin (InvivoGen, cat. ant-pm-2), 10% defined fetal bovine serum, heat inactivated (HyClone Laboratories Inc., cat. SH30070.03HI), 50% L-WRN conditioned media (ATCC, cat. CRL-3276), 1.25 mM N-Acetyl-L-cysteine (Sigma-Aldrich, cat. A9165), 10 mM nicotinamide (Sigma-Aldrich, cat. N0636), 1X B-27 supplement (Thermo Fisher Scientific, cat. 17504044), 1X N-2 supplement (Thermo Fisher Scientific, cat. 17502048), 10 microM Y-27632 dihydrochloride (Tocris Bioscience, cat. 1254), and 50 ng/mL human EGF recombinant protein (Thermo Fisher Scientific, cat. PHG0311). The 485176-168-R4-J1-PDC line was cultured in Panc media, which includes all 6C/Colon 1B media components plus 100 ng/mL human FGF-10 (Thermo Fisher Scientific, cat. 100-26), 500 nM SB-431542 (Selleckchem, cat. S1067), and gastrin (Tocris, cat. 3006).\n[…]",
  "note": "“And” between values parts separate entries of the source, which are not always exact repeats. Equal entries are not always repeated.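 Note: spheroids exposed to agents for seven days before readout.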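 Throughout, for viability, T/C: percent of vehicle control viability where 100% = DMSO wells.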",
  "data": [
    {"smiles": "C=CC(=O)N1CCN(c2nc(=O)n(-c3c(C)ccnc3C(C)C)c3nc(-c4c(O)cccc4F)c(F)cc23)C(C)C1", "note": "(centres undefined)", "values": [
      {"measurement": "viability, T/C", "setting": "compound 0.0316 µM", "result": "96.5% and 93.7% and 94.2%"},
      {"measurement": "viability, T/C", "setting": "compound 0.1 µM", "result": "88.8% and 90% and 101%"},
      {"measurement": "viability, T/C", "setting": "compound 0.316 µM", "result": "98.2% and 110% (2×)"},
      {"measurement": "viability, T/C", "setting": "compound 1 µM", "result": "117% and 108% and 105%"},
      {"measurement": "viability, T/C", "setting": "compound 3.16 µM", "result": "95.2% and 106% and 104%"},
      {"measurement": "viability, T/C", "setting": "compound 10 µM", "result": "87% and 89.9% and 96.3%"},
      {"measurement": "IC50", "setting": "curve of compound", "result": "> 10", "unit": "µM"}
    ]},
    {"smiles": "COc1cc(C2c3cc4c(cc3C(OC3OC5COC(C)OC5C(O)C3O)C3COC(=O)C23)OCO4)cc(OC)c1O", "note": "(centres undefined) + CN(C)c1ccc(Nc2c3ccc(NC(=O)CCN4CCCC4)cc3nc3cc(NC(=O)CCN4CCCC4)ccc23)cc1", "values": [
      {"measurement": "IC50", "setting": "curve of first compound, second compound 0.0316 µM", "result": "> 10", "unit": "µM"},
      {"measurement": "IC50", "setting": "curve of first compound, second compound 0.1 µM", "result": "> 10", "unit": "µM"},
      {"measurement": "IC50", "setting": "curve of first compound, second compound 0.316 µM", "result": "> 10", "unit": "µM"},
      {"measurement": "IC50", "setting": "curve of first compound, second compound 1 µM", "result": "> 10", "unit": "µM"},
      {"measurement": "IC50", "setting": "curve of first compound, second compound 3.16 µM", "result": "> 10", "unit": "µM"},
      {"measurement": "IC50", "setting": "curve of first compound, second compound 10 µM", "result": "> 10", "unit": "µM"},
      {"measurement": "viability, T/C", "setting": "second compound 0.0316 µM, first compound 0.0316 µM", "result": 94.3, "unit": "%"},
      {"measurement": "viability, T/C", "setting": "second compound 0.0316 µM, first compound 0.1 µM", "result": 90.8, "unit": "%"},
      {"measurement": "viability, T/C", "setting": "second compound 0.0316 µM, first compound 0.316 µM", "result": 84.4, "unit": "%"},
      {"measurement": "viability, T/C", "setting": "second compound 0.0316 µM, first compound 1 µM", "result": 87.6, "unit": "%"},
      {"measurement": "viability, T/C", "setting": "second compound 0.0316 µM, first compound 3.16 µM", "result": 73.3, "unit": "%"},
      {"measurement": "viability, T/C", "setting": "second compound 0.0316 µM, first compound 10 µM", "result": 72.6, "unit": "%"},
      {"measurement": "viability, T/C", "setting": "second compound 0.1 µM, first compound 0.0316 µM", "result": 114, "unit": "%"},
      {"measurement": "viability, T/C", "setting": "second compound 0.1 µM, first compound 0.1 µM", "result": 87.2, "unit": "%"},
      {"measurement": "viability, T/C", "setting": "second compound 0.1 µM, first compound 0.316 µM", "result": 83.2, "unit": "%"},
      {"measurement": "viability, T/C", "setting": "second compound 0.1 µM, first compound 1 µM", "result": 81.8, "unit": "%"},
      {"measurement": "viability, T/C", "setting": "second compound 0.1 µM, first compound 3.16 µM", "result": 80.6, "unit": "%"},
      {"measurement": "viability, T/C", "setting": "second compound 0.1 µM, first compound 10 µM", "result": 69.4, "unit": "%"},
      {"measurement": "viability, T/C", "setting": "second compound 0.316 µM, first compound 0.0316 µM", "result": 104, "unit": "%"},
      {"measurement": "viability, T/C", "setting": "second compound 0.316 µM, first compound 0.1 µM", "result": 82.9, "unit": "%"},
      {"measurement": "viability, T/C", "setting": "second compound 0.316 µM, first compound 0.316 µM", "result": 90.8, "unit": "%"},
      {"measurement": "viability, T/C", "setting": "second compound 0.316 µM, first compound 1 µM", "result": 89.5, "unit": "%"},
      {"measurement": "viability, T/C", "setting": "second compound 0.316 µM, first compound 3.16 µM", "result": 76.3, "unit": "%"},
      {"measurement": "viability, T/C", "setting": "second compound 0.316 µM, first compound 10 µM", "result": 64.2, "unit": "%"},
      {"measurement": "viability, T/C", "setting": "second compound 1 µM, first compound 0.0316 µM", "result": 91.6, "unit": "%"},
      {"measurement": "viability, T/C", "setting": "second compound 1 µM, first compound 0.1 µM", "result": 86.1, "unit": "%"},
      {"measurement": "viability, T/C", "setting": "second compound 1 µM, first compound 0.316 µM", "result": 70.4, "unit": "%"},
      {"measurement": "viability, T/C", "setting": "second compound 1 µM, first compound 1 µM", "result": 76.6, "unit": "%"},
      {"measurement": "viability, T/C", "setting": "second compound 1 µM, first compound 3.16 µM", "result": 76, "unit": "%"},
      {"measurement": "viability, T/C", "setting": "second compound 1 µM, first compound 10 µM", "result": 60.4, "unit": "%"},
      {"measurement": "viability, T/C", "setting": "second compound 3.16 µM, first compound 0.0316 µM", "result": 73.1, "unit": "%"},
      {"measurement": "viability, T/C", "setting": "second compound 3.16 µM, first compound 0.1 µM", "result": 63.1, "unit": "%"},
      {"measurement": "viability, T/C", "setting": "second compound 3.16 µM, first compound 0.316 µM", "result": 69.5, "unit": "%"},
      {"measurement": "viability, T/C", "setting": "second compound 3.16 µM, first compound 1 µM", "result": 56.6, "unit": "%"},
      {"measurement": "viability, T/C", "setting": "second compound 3.16 µM, first compound 3.16 µM", "result": 63.4, "unit": "%"},
      {"measurement": "viability, T/C", "setting": "second compound 3.16 µM, first compound 10 µM", "result": 57.8, "unit": "%"},
      {"measurement": "viability, T/C", "setting": "second compound 10 µM, first compound 0.0316 µM", "result": 73.4, "unit": "%"},
      {"measurement": "viability, T/C", "setting": "second compound 10 µM, first compound 0.1 µM", "result": 74, "unit": "%"},
      {"measurement": "viability, T/C", "setting": "second compound 10 µM, first compound 0.316 µM", "result": 68.2, "unit": "%"},
      {"measurement": "viability, T/C", "setting": "second compound 10 µM, first compound 1 µM", "result": 82.6, "unit": "%"},
      {"measurement": "viability, T/C", "setting": "second compound 10 µM, first compound 3.16 µM", "result": 71.4, "unit": "%"},
      {"measurement": "viability, T/C", "setting": "second compound 10 µM, first compound 10 µM", "result": 56.6, "unit": "%"}
    ]}
  ]
}
